Measurements published in patent US10280159B2 (AbbVie Deutschland GmbH & Co. KG, priority 2015, dated 2019).
Like-named read-outs stand apart in the source and are kept apart here.

What was measured:
Type in all cases: cell-based
human S1PR4 = biological target: T1, human S1PR4 (Homo sapiens, UniProt O95977); assay: Intracellular Ca2+ release (FLIPR) agonist potency, S1P4
T1 construct: host or cells: CHO-K1
T1 sequence (O95977 1-384): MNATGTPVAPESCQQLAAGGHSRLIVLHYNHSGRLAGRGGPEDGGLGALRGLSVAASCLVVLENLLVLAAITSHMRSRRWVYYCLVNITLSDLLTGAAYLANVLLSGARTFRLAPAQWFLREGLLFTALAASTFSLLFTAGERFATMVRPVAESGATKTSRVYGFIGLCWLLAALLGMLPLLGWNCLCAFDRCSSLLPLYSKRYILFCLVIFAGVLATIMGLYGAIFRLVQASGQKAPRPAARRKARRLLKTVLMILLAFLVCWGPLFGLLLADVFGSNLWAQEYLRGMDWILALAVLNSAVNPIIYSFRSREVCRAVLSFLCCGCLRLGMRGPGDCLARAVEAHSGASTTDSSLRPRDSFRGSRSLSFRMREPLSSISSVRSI
Outline: (§1)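 CHO-K1 cells recombinantly expressing the human S1P receptor plus aequorin and Gq/i5 were grown in F-12 Ham with 10% FBS. Agonist-induced intracellular Ca2+ release was read on a FLIPR Tetra. EC50 came from nonlinear fits of raw fluorescence normalized to the phospho-fingolimod reference curve.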

human S1PR3 = biological target: T2, human S1PR3 (Homo sapiens, UniProt Q99500); assay: Intracellular Ca2+ release (FLIPR) agonist potency, S1P3
T2 construct: host or cells: CHO-K1
T2 sequence (Q99500 whole entry): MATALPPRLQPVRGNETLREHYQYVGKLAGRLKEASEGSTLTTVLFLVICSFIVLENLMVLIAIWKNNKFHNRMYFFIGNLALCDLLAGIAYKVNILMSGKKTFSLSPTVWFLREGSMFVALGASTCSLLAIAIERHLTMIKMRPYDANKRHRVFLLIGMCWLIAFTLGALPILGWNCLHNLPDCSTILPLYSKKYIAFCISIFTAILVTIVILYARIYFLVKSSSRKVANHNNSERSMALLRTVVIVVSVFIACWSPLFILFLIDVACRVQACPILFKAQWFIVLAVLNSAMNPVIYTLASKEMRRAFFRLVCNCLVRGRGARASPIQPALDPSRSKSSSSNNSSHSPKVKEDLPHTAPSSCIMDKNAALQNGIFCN
Experimental: Agonistic activity was measured using the method described below.
Intracellular Ca^2+ Release
Agonist potency and intrinsic activity was assessed by measurement of intracellular Ca^2+ release. Recombinant CHO-K1 cells (Euroscreen, Brussels, Belgium) expressing human S1PR5, S1PR1, S1PR3 or S1PR4 receptors, aequorin, and GTP binding protein Gq/i5 were cultured using a medium containing nutrient mixture F-12 Ham (Sigma-Aldrich) with 10% FBS, and 100 μg/mL gentamicin and equilibrated at 5% CO2.
Phospho-fingolimod was used as positive control. Antagonists were pre-incubated for 10 min with cells before addition of the agonist (phospho-fingolimod at EC80). Measurements were performed using a fluorometric imaging plate reader FLIPR®tetra (Molecular Devices). Agonist at the human S1P receptors were characterized by deducing EC50 (potency) values from a nonlinear fit to the measured fluorescence raw data after normalization to the reference agonist (phospho-fingolimod) curve.

human S1PR5 = biological target: T3, human S1PR5 (Homo sapiens, UniProt Q9H228); assay: Intracellular Ca2+ release (FLIPR) agonist potency, S1P5
T3 construct: host or cells: CHO-K1
T3 sequence (Q9H228 whole entry): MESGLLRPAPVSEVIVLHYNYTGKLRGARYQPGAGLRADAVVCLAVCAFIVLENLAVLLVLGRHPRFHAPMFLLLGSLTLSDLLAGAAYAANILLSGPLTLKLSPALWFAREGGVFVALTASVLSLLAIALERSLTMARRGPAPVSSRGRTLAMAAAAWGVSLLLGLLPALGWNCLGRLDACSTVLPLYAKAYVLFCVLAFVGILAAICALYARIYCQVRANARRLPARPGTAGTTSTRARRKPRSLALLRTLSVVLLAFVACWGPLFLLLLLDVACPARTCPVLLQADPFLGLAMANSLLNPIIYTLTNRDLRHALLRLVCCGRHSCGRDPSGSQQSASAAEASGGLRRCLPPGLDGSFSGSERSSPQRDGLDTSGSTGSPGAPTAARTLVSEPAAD
Outline: as §1

human S1PR1 = biological target: T4, human S1PR1 (Homo sapiens, UniProt P21453); assay: Intracellular Ca2+ release (FLIPR) agonist potency, S1P1
T4 construct: host or cells: CHO-K1
T4 sequence (P21453 whole entry): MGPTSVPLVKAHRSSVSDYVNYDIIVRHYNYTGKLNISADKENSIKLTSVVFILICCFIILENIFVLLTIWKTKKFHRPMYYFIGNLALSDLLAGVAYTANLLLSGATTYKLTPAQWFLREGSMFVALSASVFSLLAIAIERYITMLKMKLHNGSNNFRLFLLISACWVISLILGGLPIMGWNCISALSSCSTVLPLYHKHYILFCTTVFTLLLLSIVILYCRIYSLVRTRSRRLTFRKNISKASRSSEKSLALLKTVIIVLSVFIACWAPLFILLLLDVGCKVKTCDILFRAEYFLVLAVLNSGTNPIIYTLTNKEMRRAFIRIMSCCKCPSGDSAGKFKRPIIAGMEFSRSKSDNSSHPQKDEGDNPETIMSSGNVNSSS
Outline: as §1

[1] = recombinant CHO-K1 cells expressing human S1PR4, aequorin, Gq/i5, Calcium 5 FLIPR, read-out: S1P4 EC50
[2] = recombinant CHO-K1 cells expressing human S1PR3, aequorin, Gq/i5, Calcium 5 FLIPR, read-out: S1P3 EC50
[3] = recombinant CHO-K1 cells expressing human S1PR5, aequorin, Gq/i5, Calcium 5 FLIPR, read-out: S1P5 EC50 range
[4] = recombinant CHO-K1 cells expressing human S1PR1, aequorin, Gq/i5, Calcium 5 FLIPR, read-out: S1P1 EC50

O=C(O)C1CN(C2COc3cc(OCc4c(F)cccc4C4CC4)ccc3C2)C1 (stereo not shown) [Compound 67, 1-(7-((2-cyclopropyl-6-fluorobenzyl)oxy)chroman-3-yl)azetidine-3-carboxylic acid]
EC50 (human S1PR4; [1]): < 1000 nM
EC50 (human S1PR3; [2]): > 1000 nM
EC50 (human S1PR5; [3]): < 10 nM
EC50 (human S1PR1; [4]): > 1000 nM

CN(CCC(=O)O)C1CCc2cc(C#Cc3c(Cl)cccc3Cl)ccc2C1 (stereo not shown) [Compound 13, 3-((6-((2,6-dichlorophenyl)ethynyl)-1,2,3,4-tetrahydronaphthalen-2-yl)(methyl)amino)propanoic acid]
EC50 (human S1PR4; [1]): < 1000 nM
EC50 (human S1PR3; [2]): > 1000 nM
EC50 (human S1PR5; [3]): < 10 nM
EC50 (human S1PR1; [4]): > 1000 nM

CCc1ccccc1COc1ccc2c(c1)OCC(N1CC(C(=O)O)C1)C2 (stereo not shown) [Compound 64, 1-(7-((2-ethylbenzyl)oxy)chroman-3-yl)azetidine-3-carboxylic acid]
EC50 (human S1PR4; [1]): < 1000 nM
EC50 (human S1PR3; [2]): > 1000 nM
EC50 (human S1PR5; [3]): 10 to 100 nM
EC50 (human S1PR1; [4]): > 1000 nM

O=C(O)COC1CCc2cc(OCc3cc(F)ccc3C(F)(F)F)ccc2C1 (stereo not shown) [Compound 168, 2-[6-[[5-fluoro-2-(trifluoromethyl)phenyl]methoxy]tetralin-2-yl]oxyacetic acid]
EC50 (human S1PR4; [1]): < 1000 nM
EC50 (human S1PR3; [2]): > 1000 nM
EC50 (human S1PR5; [3]): < 10 nM
EC50 (human S1PR1; [4]): > 1000 nM

O=C(O)CCNC1CCc2cc(/C=C/c3c(Cl)cccc3Cl)ccc2C1 (stereo not shown) [Compound 18, (E)-3-((6-(2,6-dichlorostyryl)-1,2,3,4-tetrahydronaphthalen-2-yl)amino)-propanoic acid]
EC50 (human S1PR4; [1]): < 1000 nM
EC50 (human S1PR3; [2]): > 1000 nM
EC50 (human S1PR5; [3]): < 10 nM
EC50 (human S1PR1; [4]): < 1000 nM

O=C(O)C1CCN(C2COc3cc(OCc4c(Cl)cccc4Cl)ccc3C2)C1 (single isomer, unassigned) [Compound 50, 1-(7-((2,6-dichlorobenzyl)oxy)chroman-3-yl)pyrrolidine-3-carboxylic acid]
EC50 (human S1PR4; [1]): > 1000 nM
EC50 (human S1PR3; [2]): > 1000 nM
EC50 (human S1PR5; [3]): < 10 nM
EC50 (human S1PR1; [4]): > 1000 nM

O=C(O)CNC1CCc2cc(C#CC3CCCCC3)ccc2C1 (stereo not shown) [Compound 30, 2-((6-(cyclohexylethynyl)-1,2,3,4-tetrahydronaphthalen-2-yl)amino)acetic acid]
EC50 (human S1PR4; [1]): < 1000 nM
EC50 (human S1PR3; [2]): > 1000 nM
EC50 (human S1PR5; [3]): < 10 nM
EC50 (human S1PR1; [4]): > 1000 nM

O=C(O)CNC1CCc2cc(OCc3c(Cl)cccc3Cl)ccc2C1 (stereo not shown) [Compound 75, 2-((6-((2,6-dichlorobenzyl)oxy)-1,2,3,4-tetrahydronaphthalen-2-yl)amino)acetic acid]
EC50 (human S1PR4; [1]): < 1000 nM
EC50 (human S1PR3; [2]): > 1000 nM
EC50 (human S1PR5; [3]): < 10 nM
EC50 (human S1PR1; [4]): > 1000 nM

CC(NC1CCc2cc(OCc3c(Cl)cccc3Cl)ccc2C1)C(=O)O (stereo not shown) [Compound 33, 2-((6-((2,6-dichlorobenzyl)oxy)-1,2,3,4-tetrahydronaphthalen-2-yl)amino)propanoic acid]
EC50 (human S1PR4; [1]): < 1000 nM
EC50 (human S1PR3; [2]): > 1000 nM
EC50 (human S1PR5; [3]): < 10 nM
EC50 (human S1PR1; [4]): > 1000 nM

O=C(O)C1CN(C2COc3cc(CCc4cc(F)cc(F)c4)ccc3C2)C1 (stereo not shown) [Compound 81, 1-(7-(3,5-difluorophenethyl)chroman-3-yl)azetidine-3-carboxylic acid]
EC50 (human S1PR4; [1]): > 1000 nM
EC50 (human S1PR3; [2]): > 1000 nM
EC50 (human S1PR5; [3]): 1000 to 10000 nM
EC50 (human S1PR1; [4]): > 1000 nM

O=C(O)C12CC(NC3CCc4cc(OCc5c(Cl)cccc5Cl)ccc4C3)(C1)C2 (stereo not shown) [Compound 32, 3-((6-((2,6-dichlorobenzyl)oxy)-1,2,3,4-tetrahydronaphthalen-2-yl)amino)bicyclo[1.1.1]pentane-1-carboxylic acid]
EC50 (human S1PR4; [1]): < 1000 nM
EC50 (human S1PR3; [2]): > 1000 nM
EC50 (human S1PR5; [3]): < 10 nM
EC50 (human S1PR1; [4]): > 1000 nM

CCc1cccc(Cl)c1COc1ccc2c(c1)CCC(NCC(=O)NO)C2 (stereo not shown) [Compound 236, 2-((6-((2-chloro-6-ethylbenzyl)oxy)-1,2,3,4-tetrahydronaphthalen-2-yl)amino)acetohydroxamic acid]
EC50 (human S1PR4; [1]): < 1000 nM
EC50 (human S1PR3; [2]): > 1000 nM
EC50 (human S1PR5; [3]): < 10 nM
EC50 (human S1PR1; [4]): > 1000 nM

O=C(O)COC1CCc2cc(OCc3c(Cl)cccc3C(F)(F)F)ccc2C1 (stereo not shown) [Compound 167, 2-[6-[[2-chloro-6-(trifluoromethyl)phenyl]methoxy]tetralin-2-yl]oxyacetic acid]
EC50 (human S1PR4; [1]): > 1000 nM
EC50 (human S1PR3; [2]): > 1000 nM
EC50 (human S1PR5; [3]): < 10 nM
EC50 (human S1PR1; [4]): > 1000 nM

CCc1cccc(Cl)c1COc1ccc2c(c1)CCC(N(C)CCC(=O)O)C2 (stereo not shown) [Compound 17, 3-((6-((2-chloro-6-ethylbenzyl)oxy)-1,2,3,4-tetrahydronaphthalen-2-yl)(methyl)amino)propanoic acid]
EC50 (human S1PR4; [1]): < 1000 nM
EC50 (human S1PR3; [2]): > 1000 nM
EC50 (human S1PR5; [3]): < 10 nM
EC50 (human S1PR1; [4]): < 1000 nM

O=C(O)CCNC1CCc2cc(OCc3c(Cl)cccc3C3CC3)ccc2C1 (stereo not shown) [Compound 21, 3-((6-((2-chloro-6-cyclopropylbenzyl)oxy)-1,2,3,4-tetrahydronaphthalen-2-yl)amino)propanoic acid]
EC50 (human S1PR4; [1]): > 1000 nM
EC50 (human S1PR3; [2]): > 1000 nM
EC50 (human S1PR5; [3]): 1000 to 10000 nM
EC50 (human S1PR1; [4]): > 1000 nM

O=C(O)CC1CCN(C2CCc3cc(OCc4c(Cl)cccc4Cl)ccc3C2)C1 (stereo not shown) [Compound 80, 2-(1-(6-((2,6-dichlorobenzyl)oxy)-1,2,3,4-tetrahydronaphthalen-2-yl)pyrrolidin-3-yl)acetic acid]
EC50 (human S1PR4; [1]): < 1000 nM
EC50 (human S1PR3; [2]): > 1000 nM
EC50 (human S1PR5; [3]): 10 to 100 nM
EC50 (human S1PR1; [4]): > 1000 nM

O=C(O)CCNC1CCc2cc(/C=C/c3ccccc3)ccc2C1 (stereo not shown) [Compound 19, (E)-3-((6-styryl-1,2,3,4-tetrahydronaphthalen-2-yl)amino)propanoic acid]
EC50 (human S1PR4; [1]): < 1000 nM
EC50 (human S1PR3; [2]): > 1000 nM
EC50 (human S1PR5; [3]): 10 to 100 nM
EC50 (human S1PR1; [4]): > 1000 nM

CCc1cccc(Cl)c1COc1ccc2c(c1)CCC(NCc1cc(=O)[nH]o1)C2 (stereo not shown) [Compound 220, 5-[[[6-[(2-chloro-6-ethyl-phenyl)methoxy]tetralin-2-yl]amino]methyl]isoxazol-3-one]
EC50 (human S1PR4): < 1000 nM
EC50 (human S1PR3): > 1000 nM
EC50 (human S1PR5; S1P5 EC50 range): < 10 nM
EC50 (human S1PR1): < 1000 nM

O=C(O)C1CN(C2COc3cc(OCc4c(Cl)cccc4Cl)ccc3C2)C1 (stereo not shown) [Compound 1, 1-(7-((2,6-dichlorobenzyl)oxy)chroman-3-yl)azetidine-3-carboxylic acid]
EC50 (human S1PR4; [1]): > 1000 nM
EC50 (human S1PR3; [2]): > 1000 nM
EC50 (human S1PR5; [3]): < 10 nM
EC50 (human S1PR1; [4]): > 1000 nM

CCc1cccc(Cl)c1COc1ccc2c(c1)CCC(NC1(C(=O)O)CC1)C2 (stereo not shown) [Compound 5, 1-((6-((2-chloro-6-ethylbenzyl)oxy)-1,2,3,4-tetrahydronaphthalen-2-yl)amino)cyclopropanecarboxylic acid]
EC50 (human S1PR4; [1]): < 1000 nM
EC50 (human S1PR3; [2]): > 1000 nM
EC50 (human S1PR5; [3]): < 10 nM
EC50 (human S1PR1; [4]): > 1000 nM

CN(CCC(=O)O)C1CCc2cc(C#Cc3cc(F)cc(F)c3)ccc2C1 (stereo not shown) [Compound 15, 3-((6-((3,5-difluorophenyl)ethynyl)-1,2,3,4-tetrahydronaphthalen-2-yl)(methyl)amino)propanoic acid]
EC50 (human S1PR4; [1]): < 1000 nM
EC50 (human S1PR3; [2]): > 1000 nM
EC50 (human S1PR5; [3]): < 10 nM
EC50 (human S1PR1; [4]): > 1000 nM

O=C(O)[C@H]1C[C@H](NC2CCc3cc(OCc4c(Cl)cccc4Cl)ccc3C2)C1 (stereo partly shown) [Compound 79, (1r,3r)-3-((6-((2,6-dichlorobenzyl)oxy)-1,2,3,4-tetrahydronaphthalen-2-yl)amino)cyclobutanecarboxylic acid]
EC50 (human S1PR4; [1]): < 1000 nM
EC50 (human S1PR3; [2]): > 1000 nM
EC50 (human S1PR5; [3]): < 10 nM
EC50 (human S1PR1; [4]): < 1000 nM

O=C(O)C1CN(C2COc3cc(C#Cc4ccccc4OC(F)F)ccc3C2)C1 (stereo not shown) [Compound 42, 1-(7-((2-(difluoromethoxy)phenyl)ethynyl)chroman-3-yl)azetidine-3-carboxylic acid]
EC50 (human S1PR4; [1]): > 1000 nM
EC50 (human S1PR3; [2]): > 1000 nM
EC50 (human S1PR5; [3]): 10 to 100 nM
EC50 (human S1PR1; [4]): > 1000 nM

O=C(O)C1CCN(C2CCc3cc(OCc4c(Cl)cccc4Cl)ccc3C2)CC1 (stereo not shown) [Compound 31, 1-(6-((2,6-dichlorobenzyl)oxy)-1,2,3,4-tetrahydronaphthalen-2-yl)piperidine-4-carboxylic acid]
EC50 (human S1PR4; [1]): < 1000 nM
EC50 (human S1PR3; [2]): > 1000 nM
EC50 (human S1PR5; [3]): < 10 nM
EC50 (human S1PR1; [4]): < 1000 nM

O=C(O)C1CN(C2COc3cc(OCc4c(F)cccc4C(F)(F)F)ccc3C2)C1 (stereo not shown) [Compound 66, 1-(7-((2-fluoro-6-(trifluoromethyl)benzyl)oxy)chroman-3-yl)azetidine-3-carboxylic acid]
EC50 (human S1PR4; [1]): < 1000 nM
EC50 (human S1PR3; [2]): > 1000 nM
EC50 (human S1PR5; [3]): 10 to 100 nM
EC50 (human S1PR1; [4]): > 1000 nM
